{"source": "paper PMC12371491", "about": "(ACS Bio & Med Chem Au, 2025)", "target": "T1, dihydrofolate synthetase (DHFS) (Escherichia coli, UniProt P08192)", "T1 sequence (P08192 1-422)": "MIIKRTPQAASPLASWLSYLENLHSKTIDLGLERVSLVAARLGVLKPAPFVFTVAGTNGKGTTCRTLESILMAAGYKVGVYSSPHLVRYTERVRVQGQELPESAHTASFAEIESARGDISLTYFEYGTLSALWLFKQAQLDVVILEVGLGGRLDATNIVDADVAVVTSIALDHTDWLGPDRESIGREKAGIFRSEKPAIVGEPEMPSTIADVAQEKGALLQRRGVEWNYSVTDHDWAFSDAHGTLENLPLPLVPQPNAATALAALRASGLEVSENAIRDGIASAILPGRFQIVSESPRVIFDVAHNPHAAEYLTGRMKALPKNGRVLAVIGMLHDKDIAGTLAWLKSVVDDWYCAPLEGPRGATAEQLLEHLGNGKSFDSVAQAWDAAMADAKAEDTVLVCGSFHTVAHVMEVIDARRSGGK", "test": "PK/LDH-coupled steady-state kinetics and LC-MS of product", "format": "biochemical"}
{"compound": "Nc1nc2c(c(=O)[nH]1)NC(CNc1ccc(C(=O)N[C@@H](CCC(=O)O)C(=O)O)cc1)CN2", "note": "(stereo partly shown) [THF]", "values": [{"measurement": "PK/LDH-coupled steady-state kinetics and LC-MS of product", "result": "we used fully reduced THF as the substrate and assay for poly glutamylation"}]}
